Data published in patent US7968572B2, “Nitrogen-containing heterocyclic compound and pharmaceutical application thereof” (Ono Pharmaceuticals Co., Ltd., priority 2005, dated 2011).

Tests used:
[1] = target: T1, recombinant human p38α MAP kinase (Homo sapiens, UniProt Q16539); test: Study on p38α MAP kinase inhibitory activity (ATF2 phosphorylation, Alpha Screen); type: biochemical; details: biotinylated ATF2 substrate, 30° C. for 30 minutes
T1 construct: purchased Upstate Biotechnology #14-251
Protocol: Study on p38α MAP Kinase Inhibitory Activity
Using activating transcription factor-2 (hereinafter abbreviated to ATF2) which is a substrate for p38α MAP kinase, the inhibitory action of the compounds of the present invention was investigated on the phosphorylation by a recombinant human p38α MAP kinase.
A kinase buffer (25 mM Tris-HCl (pH 7.5), 5 mM β-glycerophosphate, 2 mM dithiothreitol, 0.1 mM Na3VO4, 10 mM MgCl2) containing a recombinant human p38α MAP kinase (Upstate Biotechnology #14-251) was added to a 384-well plate (5 μL) (6.25 ng protein/well) for fluorescence measurement. After addition of a kinase buffer (5 μL) containing the compound of the present invention, the resulting mixture was incubated at room temperature for 20 minutes. A substrate mixture (5 μL) of biotinylated ATF2 of 5 μg/mL (Upstate Biotechnology #14-432), adenosine triphosphate (90 μmol/L) (Sigma #FL-AAS) and anti-phosphorylated ATF2 antibody (20-fold dilution) (Cell Signaling Technology #9221L) prepared separately was added thereto, and enzyme reaction was carried out at 30° C. for 30 minutes. After the reaction, Hepes buffer (5 μL) containing 0.25% BSA and 100 mM EDTA was added to stop the enzyme reaction. The amount of a complex of the phosphorylated ATF2 and anti-phosphorylated ATF2 antibody produced by the reaction was measured using an Alpha Screen™ Rabbit Detection kit (Packard #6760607).
The p38α MAP kinase inhibitory activity, which is the effect of the compound of the present invention, was calculated as an inhibition rate (%) according to the following equation: Inhibition rate (%)={(AC−AX)/(AC−AB)}×100
wherein AB is a measured value without addition of the enzyme;
AC is a measured value with addition of the enzyme in the absence of a test compound; and
AX is a measured value with addition of the enzyme in the presence of a test compound.
(§1) Inhibition rate of compounds with each concentration was calculated, and a value indicating 50% inhibition (IC50) was determined from the inhibition curve.

[2] = tested on: TNF-α production stimulated by lipopolysaccharide (LPS) in THP-1; test: Inhibitory activity against TNF-α production using human cell lines (LPS-stimulated THP-1); type: cell-based; details: 1.5 h, THP-1 cells, LPS stimulation, 90 minutes at 37° C., TNF-α by ELISA
Protocol: Inhibitory Activity against TNF-α Production using Human Cell Lines
Using THP-1 which is a human monocytic cell line, the inhibitory effect of the compound of the present invention against TNF-α production stimulated by lipopolysaccharide (LPS) was studied.
Each 50 μL of lipopolysaccharide (LPS; 055:B5, Difco) prepared to a concentration of 40 ng/mL using RPMI-1640 medium containing 10% fetal calf serum (hereinafter abbreviated to RPMI-1640) and RPMI-1640 containing the compound of the present invention was added to a 96-well plate for cell culture. 100 μL of the cell suspension of THP-1 (Dainippon Pharmaceutical Co., Ltd, #06-202) prepared to a cell density of 2×10^6 cells/mL using RPMI-1640 was added and cultured for 90 minutes at 37° C. in an incubator (5% CO2, 95% air). After completion of the reaction, the culture medium supernatant was recovered and the amount of produced TNF-α was measured using an ELISA kit (Invitrogen, #850090192).
The inhibitory activity against TNF-α production, which is the effect of the compound of the present invention, was calculated as an inhibition rate (%) by the following equation: Inhibition rate (%)={(AC−AX)/(AC−AB)}×100
wherein AB is a measured value without LPS induction;
AC is a measured value with LPS induction in the absence of a test compound; and
AX is a measured value with LPS induction in the presence of a test compound.
as §1

[3] = tested on: TNF-α production induced by lipopolysaccharide (LPS) in rats; test: Rat cytokine-production model; type: in vivo; details: male SD rat, oral 0.3 mg/kg, LPS 10 μg/kg intravenously after 8 hours, plasma TNF-α ninety minutes after LPS; read-out: Inhibition rate (%) (Dose of compound: 0.3 mg/kg)
Protocol: Rat Cytokine-Production Model
The in vivo effect of the compound of the present invention was studied on TNF-α production induced by lipopolysaccharide (LPS) in rats.
A vehicle containing the compound of the present invention was orally administered to male SD rat (Charles River Japan, Inc.), and after 8 hours, lipopolysaccharide (LPS, 055:B5, Difco) was intravenously administered at the dose of 10 μg/kg (5 animals/group). Only a vehicle was orally administered to a control group (5 animals). Ninety minutes after the LPS treatment, heparinized blood collection was performed via the abdominal vena cava under anesthesia with ether, and blood plasma was obtained by centrifugation (12,000 rpm, 3 minutes, 4° C.). The obtained blood plasma sample was stored at −80° C. until it was used. TNF-α in the blood plasma was measured using an ELISA kit from R&D System (#RTA00).
The inhibitory activity of the compound of the present invention against TNF-α production was calculated as an inhibition rate (%) according to the following equation: Inhibition rate (%)={(AC−AX)/AC}×100
wherein AC is a measured value in case where no test compound was administered under LPS induction, and
AX is a measured value in case where a test compound was administered under LPS induction.

[4] = Evaluation of artificial lipid membrane binding using a Biacore S51 system
Protocol: Evaluation of Artificial Lipid Membrane Binding using a Biacore S51 (Registered Trademark) System
Using an aspirator, 10 mM of 1,2-dioleoyl-sn-glycero-3-phosphate monosodium salt (hereinafter abbreviated to DOPA) chloroform solution was evaporated to be dryness, and 0.6 mL of PBS/5% dimethyl sulfoxide (hereinafter abbreviated to DMSO) was added thereto. After carrying out thorough suspension by vortex, freezing and thawing were repeated for 5 times. Liposomes were prepared using a liposome preparation device (manufactured by Avestin Inc.) and two syringes and diluted to be 0.5 mM with PBS/5% DMSO just before the immobilization.
Each compound having a final concentration in PBS/5% DMSO of 50 μM was prepared by adding 38 μL of 1× PBS to 2 μL of 10 mM DMSO solution and further adding 360 μL of 1× PBS/5% DMSO and measured.
All of the following analyses were carried out using the Biacore S51 (registered trademark) system, and the measuring conditions were set up by Biacore S51 Control Software.
The measuring temperature was set to be 37° C., and PBS/5% DMSO (pH 7.4 or pH 6.0) was used as the buffer. Series S Sensor Chip L1 was used as the sensor chip. DOPA was immobilized on one of the measuring spots on the sensor surface, and the central spot was used as the reference.
Immobilization of the liposomes was carried out for about 3 minutes at a flow rate of 10 μL/minute, and then each compound was added thereto at a flow rate of 30 μL/minute to measure the interaction. The measuring conditions are as shown in the following.
Assay buffer: PBS/5% DMSO (pH 7.4 or pH 6.0)
Measuring temperature: 37° C.
Sensor chip: Series S Sensor Chip L1
Flow rate: 10 μL/minute at the time of liposome immobilization, 30 μL/minute at the time of interaction measurement
Regeneration: 20 mM CHAPS (3-[(3-cholamidopropyl)dimethylammonio]-1-propanesulfonate), an isopropanol/50 mM aqueous solution of sodium hydroxide=40/60 (volume ratio) mixed solution (60 seconds)
The data treatment was carried out in accordance with the method of Abdiche et al. (Analytical Biochemistry, 328, 233-243 (2004)) using Biacore S51 Evaluation Software.
After correcting infinitesimal error of the concentration of DMSO contained in the sample solution, the value of binding response (RU) obtained by subtracting the value of reference was divided by the sample molecular weight. Additionally, since the thus obtained value is proportional to the capturing amount of liposome, it was divided by the capturing amount at the time of the cycling and multiplied by 10^6 to be used as the correction value (correction value=1000000×RU (compound to be tested)/molecular weight (compound to be tested) RU (liposome)).
By adding propranolol, amiodarone, desipramine, imipramine and procaine as controls, it was confirmed that variation of the binding response is within about 10 to 15%.
Compounds having a binding response value after correction of 100 or more were judged positive.

[5] = tested on: Chinese hamster lung cells (CHL/IU); test: Phospholipidosis detection system using a fluorescence labeling phospholipid analog (NBD-PE); type: cell-based
Protocol: Study by a Phospholipidosis Detection System using a Fluorescence Labeling Phospholipid Analog Cell suspension (7×10^4 cells/ml) of Chinese hamster lung cells (CHL/IU) prepared using MEM (minimum essential medium) was added to a 96 well plate (96 well clear bottom plate) by 100 μL/necessary number of wells (2 wells for 1 dosage) and cultured for about 24 hours. After the culturing and subsequent removal of the supernatants on the 96 well plate, the compounds having respective concentrations prepared by dissolving or suspending in MEM medium containing 25 μmol/L of nitrobenzoxazole dipalmitoyl phosphatidyl ethanolamine (NBD-PE) (hereinafter abbreviated to NBD-PE medium) were added thereto by 100 μL/ well and treated for about 24 hours. Treating concentration of each compound was set to be 6.25, 12.5, 25, 50 or 100 μmol/L. […] In this connection, 5 wells of an untreated control (MEM medium alone) or an NBD-PE control (prepared by adding 1/100 volume of DMSO to the NBD-PE medium) were arranged for each compound and cultured in the same manner. After completion of the culturing and subsequent two times of washing with 100 μL/well of phosphate buffered saline (hereinafter abbreviated to PBS) (−), 100 μL of the MEM medium was added to all of the treated wells including two empty wells for the WST-1 background control and cultured for about 0.5 hour. Fluorescence intensity of each well was measured using a microplate reader (manufactured by Molecular Devices, SPECTRA max M2; excitation wavelength 485 nm/fluorescence wavelength 535 nm). Using average value of 2 wells for each dosage, the phospholipid increasing ratio (%) based on NBD-PE control was calculated using the following formula. Phospholipid accumulation increasing ratio (%)=100×(fluorescence intensity of substance to be tested−fluorescence intensity of untreated control)/(fluorescence intensity of NBD-PE control−fluorescence intensity of untreated control) (iii) Cytotoxicity Test The Pre value was calculated by measuring the 96 well plate which was measured in the measurement of phospholipid accumulation, using the microplate reader (manufactured by Molecular Devices, SPECTRA max M2) at a dominant wavelength of 450 nm and a correction wavelength of 690 nm. Premix WST-1 was added to the pre-measured 96 well plate by 5 μL/well. After 2 to 4 hours of culture, the Aft value was calculated by measuring in the same manner as in the Pre measurement. The background control value was subtracted from each of the measured values. Using the value obtained by subtracting the Pre value from the Aft value, the cell growth ratio (%) was calculated using the following formula.

T1 sequence (Q16539 whole entry): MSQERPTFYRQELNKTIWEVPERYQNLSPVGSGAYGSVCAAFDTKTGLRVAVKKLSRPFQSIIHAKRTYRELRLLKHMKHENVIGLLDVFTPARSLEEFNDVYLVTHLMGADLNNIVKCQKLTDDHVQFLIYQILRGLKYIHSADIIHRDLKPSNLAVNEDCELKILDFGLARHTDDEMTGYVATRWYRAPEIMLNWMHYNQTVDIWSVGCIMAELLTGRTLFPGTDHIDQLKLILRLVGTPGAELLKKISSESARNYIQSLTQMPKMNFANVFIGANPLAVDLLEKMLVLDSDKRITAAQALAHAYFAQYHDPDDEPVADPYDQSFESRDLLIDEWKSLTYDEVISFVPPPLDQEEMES

IC50 [1] [nM]	IC50 [2] [nM]	Binding Level (RU) ([4]; compound 50 μM, DOPA liposomes on Sensor Chip L1, 37° C., PBS/5% DMSO (pH 7.4 or pH 6.0))	SMILES	inhibition at 0.3 mg/kg [3] [%]	Judgment ([4]; phospholipidosis inducing activity judged from artificial lipid membrane binding)	Pospholipid accumulation increasing ratio (% of 30 uM amiodarone) (Dose of compound: 100 uM) ([5]; compound 100 uM, about 24 hours with NBD-PE)	Judgment ([5]; phospholipidosis inducing activity, NBD-PE)
12	2.6		Cc1cc(Cl)cc(C)c1-n1cc(-c2nc(C(C)(CO)CO)oc2-c2ccc(F)cc2F)ccc1=O [Compound 6a, 1-(4-chloro-2,6-dimethylphenyl)-5-{5-(2,4-difluorophenyl)-2-[2-hydroxy-1-(hydroxymethyl)-1-methylethyl]-1,3-oxazol-4-yl}-2(1H)-pyridinone]				
1.7	0.7	15.5	CC(C)(O)c1nc(-c2ccc(F)cc2F)c(-c2ccc(=O)n(-c3c(F)cccc3F)c2)o1 [Compound 89 (b), 1-(2,6-difluorophenyl)-5-[4-(2,4-difluorophenyl)-2-(1-hydroxy-1-methylethyl)-1,3-oxazol-5-yl]-2(1H)-pyridinone]	82	Negative		
5.8	0.7		C[C@](O)(CO)c1nc(-c2ccc(F)cc2F)c(-c2ccc(=O)n(-c3c(F)cccc3F)c2)o1 [Example 210, 1-(2,6-difluorophenyl)-5-{4-(2,4-difluorophenyl)-2-[(1S)-1,2-dihydroxy-1-methylethyl]-1,3-oxazol-5-yl}-2(1H)-pyridinone]	49		8 % of 30 uM amiodarone	Negative
